According to publication PMC2644304 (Nature chemical biology, 2009):

Molecular target: AcsD (Dickeya chrysanthemi, UniProt Q93AT8)
Assay: X-ray crystal structure of the complex
Format: binding
Conditions: co-crystal with sulfate and citrate; ATP site

## Nc1ncnc2c1ncn2[C@@H]1O[C@H](CO)[C@@H](O)[C@H]1O [adenosine]
  X-ray crystal structure of the complex: adenosine binds in the same pocket as seen in the ATP structure
